This is an account of results in ChEMBL document CHEMBL1201862, “PubChem BioAssay data set” (2004).

Some test systems named below: SK-MEL-28; SN12C; SF-295; ACHN; NCI-H226; MOLT-4; RXF 393; OVCAR-8; Hs-578T; SK-MEL-5; SW-620; CAKI-1; HOP-92; UACC-62; SR; 786-0; COLO 205; HL-60; EKVX; LOX IMVI.
Holding throughout (assay): NCI-60 cell line screen, 48 h

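Exposure lasted 48 hours, with cells grown in 96-well plates and compounds tested at five concentrations. GI50 is the concentration that inhibits growth by half.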 The source made the active and inactive calls. Rule as the data show it: active = GI50 up to about 1.1 µM and inactive = higher.

On to `CCN(CC)CCNc1ccc2ncn3c4c(OC)ccc(O)c4c(=O)c1c23`, for which the GI50 is 12.3 µM (inactive) in the assay with SK-MEL-28; 4.82 µM (inactive) with SN12C; 16.6 µM (inactive) in the assay with SF-295; 5.94 µM (inactive) in the assay on ACHN; 45.8 µM (inactive) in the assay with NCI-H226; 0.625 µM (active) in the assay on MOLT-4. Also, the GI50 in the assay on RXF 393 was 5.85 µM (inactive); with OVCAR-8, 6.93 µM (inactive); with Hs-578T, 92.5 µM (inactive); in the assay on SK-MEL-5, 9.51 µM (inactive); in the assay on SW-620, 3.09 µM (inactive); in the assay with CAKI-1, 32.1 µM (inactive). In addition, the GI50 was 2.74 µM (inactive) in the assay with HOP-92; 35.7 µM (inactive) with UACC-62; 1.63 µM (inactive) in the assay on SR; 8.93 µM (inactive) with 786-0; 5.87 µM (inactive) with COLO 205; 30.8 µM (inactive) in the assay on HL-60. Moreover, the GI50 with EKVX was 46.8 µM (inactive).
Consider `CN(N=O)C(=O)N[C@H]1C(O)O[C@H](CO)[C@@H](O)[C@@H]1O` (stereo not given in full), for which the GI50 was 611 µM (inactive) with SK-MEL-28; 581 µM (inactive) with SN12C; 589 µM (inactive) in the assay with SF-295; > 750 µM (inactive) in the assay with ACHN; 596 µM (inactive) in the assay with NCI-H226; 558 µM (inactive) with MOLT-4. The GI50 with RXF 393 was 600 µM (inactive); with OVCAR-8, 617 µM (inactive); with Hs-578T, > 750 µM (inactive); with SK-MEL-5, 413 µM (inactive); in the assay on SW-620 it was 511 µM (inactive); in the assay with CAKI-1, 429 µM (inactive). Besides, the GI50 is 548 µM (inactive) in the assay with HOP-92; 550 µM (inactive) with UACC-62; 537 µM (inactive) with SR; 309 µM (inactive) in the assay with 786-0; 596 µM (inactive) in the assay on COLO 205; 499 µM (inactive) in the assay with HL-60. Moreover, the GI50 in the assay with EKVX was 643 µM (inactive).
On to `N#Cc1c(O)n(-c2ccccc2)c(=O)c2c(N)n[nH]c12`, for which the GI50 in the assay with SK-MEL-28, with SN12C, in the assay on NCI-H226, in the assay with MOLT-4, with RXF 393 and with OVCAR-8 was > 100 µM (inactive) each time. Besides, the GI50 in the assay on Hs-578T was > 100 µM (inactive); in the assay with SK-MEL-5 it was > 100 µM (inactive); with SW-620 it was 64.9 µM (inactive); with CAKI-1 it was 95.1 µM (inactive); with HOP-92, > 100 µM (inactive); in the assay with UACC-62, 31.3 µM (inactive). For the same compound, the GI50 is > 100 µM (inactive) in the assay with SR; > 100 µM (inactive) in the assay on 786-0; > 100 µM (inactive) with COLO 205; > 100 µM (inactive) in the assay with HL-60; 21.5 µM (inactive) with LOX IMVI; > 100 µM (inactive) in the assay on EKVX.
Regarding `O=C(Nn1c(-c2ccccc2)nc2ccccc2c1=O)c1ccc([N+](=O)[O-])cc1`, the GI50 was 72.3 µM (inactive) with SK-MEL-28; > 100 µM (inactive) in the assay with SN12C; > 100 µM (inactive) in the assay with SF-295; > 100 µM (inactive) in the assay on ACHN; 46.3 µM (inactive) in the assay with NCI-H226; > 100 µM (inactive) with MOLT-4. In addition, the GI50 in the assay on RXF 393 is 49.2 µM (inactive); in the assay on OVCAR-8, > 100 µM (inactive); in the assay on Hs-578T it was > 100 µM (inactive); in the assay with SK-MEL-5, 64.1 µM (inactive); with SW-620, > 100 µM (inactive); in the assay on HOP-92 it was 32.4 µM (inactive). In addition, the GI50 in the assay on UACC-62 is 45.2 µM (inactive); in the assay on SR, > 100 µM (inactive); in the assay with 786-0, > 100 µM (inactive); in the assay with COLO 205 it was > 100 µM (inactive); in the assay on HL-60, > 100 µM (inactive); in the assay with LOX IMVI it was > 100 µM (inactive). The GI50 with EKVX was > 100 µM (inactive).
As to `O=c1[nH]c(=O)n(C2OC(CO)C(O)C2O)c2ccsc12` (stereo not given), the GI50 in the assay with SK-MEL-28, with SN12C, with SF-295, with ACHN, with NCI-H226 and in the assay on MOLT-4 was > 100 µM (inactive) in each case. Further, the GI50 in the assay on RXF 393 is > 100 µM (inactive); in the assay on OVCAR-8 it was > 10 µM (inactive); with Hs-578T, > 100 µM (inactive); in the assay on SK-MEL-5 it was > 100 µM (inactive); in the assay on SW-620, > 100 µM (inactive); in the assay with CAKI-1 it was > 100 µM (inactive). The GI50 with HOP-92, with SR, with 786-0, in the assay on COLO 205, in the assay with HL-60 and in the assay with LOX IMVI was > 100 µM (inactive) each time. Further, the GI50 in the assay with EKVX was > 100 µM (inactive).
`Cc1ccc(C(=O)/C=C/N2CCN(c3cccc(C(F)(F)F)c3)CC2)cc1`: the GI50 was 19.7 µM (inactive) in the assay on SK-MEL-28; 18.5 µM (inactive) in the assay with SN12C; 17.5 µM (inactive) in the assay with SF-295; 23.9 µM (inactive) in the assay with ACHN; 16.9 µM (inactive) with NCI-H226; 15.1 µM (inactive) in the assay with MOLT-4. In addition, the GI50 was 15.7 µM (inactive) in the assay on RXF 393; 17.5 µM (inactive) in the assay on OVCAR-8; 24 µM (inactive) with Hs-578T; 14.9 µM (inactive) in the assay with SK-MEL-5; 20.6 µM (inactive) with SW-620; 17.8 µM (inactive) in the assay with CAKI-1. Further, the GI50 in the assay with HOP-92 is 27.1 µM (inactive); with UACC-62, 19.3 µM (inactive); in the assay on SR, 19.8 µM (inactive); in the assay on 786-0, 18.2 µM (inactive); in the assay with COLO 205, 24.3 µM (inactive); in the assay on HL-60 it was 22.8 µM (inactive). The GI50 with EKVX is 18.7 µM (inactive).
`COc1cc2c(cc1OCc1ccccc1)NC(=O)[C@@H]1C[C@@H](O)CN1C2=O`: the GI50 with SK-MEL-28, in the assay with SN12C, in the assay on SF-295, with ACHN, in the assay with NCI-H226 and in the assay on MOLT-4 was > 100 µM (inactive) each time. Moreover, the GI50 in the assay on RXF 393, in the assay with OVCAR-8, in the assay on Hs-578T, in the assay on SK-MEL-5, in the assay with SW-620 and in the assay with CAKI-1 was > 100 µM (inactive) each time. In addition, the GI50 is > 100 µM (inactive) in the assay with HOP-92; > 100 µM (inactive) in the assay on UACC-62; 47 µM (inactive) in the assay with SR; > 100 µM (inactive) in the assay on 786-0; > 100 µM (inactive) in the assay with COLO 205; > 100 µM (inactive) in the assay with LOX IMVI. In addition, in the assay on EKVX, the GI50 is > 100 µM (inactive).
`Cc1ccc(/N=N/c2cc(=O)[nH]c(=O)[nH]2)cc1C`: the GI50 in the assay with SK-MEL-28 was 15.6 µM (inactive); with SN12C, 4.74 µM (inactive); with SF-295 it was 15.3 µM (inactive); in the assay with ACHN, 11 µM (inactive); in the assay with NCI-H226 it was 19.1 µM (inactive); in the assay with MOLT-4 it was 3.94 µM (inactive). For the same compound, the GI50 in the assay with RXF 393 is 5.04 µM (inactive); in the assay on OVCAR-8, 14.6 µM (inactive); in the assay on Hs-578T, > 10 µM (inactive); in the assay with SK-MEL-5, 15.8 µM (inactive); in the assay with SW-620, 4.03 µM (inactive); in the assay with HOP-92 it was 16.4 µM (inactive). In addition, the GI50 in the assay with SR is 3.6 µM (inactive); in the assay with 786-0 it was 2.82 µM (inactive); in the assay on COLO 205, 7.76 µM (inactive); in the assay with HL-60 it was 3.01 µM (inactive); with LOX IMVI, 1.71 µM (inactive); with EKVX it was 17.9 µM (inactive).
